Laboratory results taken from patent publication US20250205204A1, “Transcription Factor Brn2 Inhibitory Compounds for Use as Therapeutics” (The University of British Columbia, priority 2021, published 2025).

What was measured:
[1] = Metabolic stability in liver microsomes (MLM); type: in vitro ADME, mice; conditions: 0.25 mg/mL protein
In short: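 Mouse liver microsomes (0.25 mg/mL protein) in 50 mM potassium phosphate pH 7.4 at 37 °C with 1 µM compound, 1 mM NADPH, 0.1% DMSO; sampled 0–60 min in duplicate. LC-MS/MS parent depletion gives half-life; CL'int in mL/min/kg scaled with 45 mg protein/g liver, 90 g liver.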

[2] = system: 42D^ENZR cells; experiment: Cell proliferation, BRN2 expressing 42D cells (crystal violet); type: cell-based; conditions: 42D (express BRN2) versus 16D (no BRN2) cells, about 72 hours; result in words
In short: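 42D^ENZR (~7000/well) and 16D^CRPC (~5000/well) cells plated, compound added next day from 3× media stocks. After ~72 hours, cells fixed with glutaraldehyde, stained with crystal violet, dye eluted in Sorensen solution; absorbance read at 590 nm.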

[3] = target: T1, BRN2 (Homo sapiens, UniProt P20265); experiment: Drug Affinity Responsive Target Stability (DARTS) assay; conditions: printed in BLI binding column; 42D^ENZR lysate
T1 sequence (P20265 1-443): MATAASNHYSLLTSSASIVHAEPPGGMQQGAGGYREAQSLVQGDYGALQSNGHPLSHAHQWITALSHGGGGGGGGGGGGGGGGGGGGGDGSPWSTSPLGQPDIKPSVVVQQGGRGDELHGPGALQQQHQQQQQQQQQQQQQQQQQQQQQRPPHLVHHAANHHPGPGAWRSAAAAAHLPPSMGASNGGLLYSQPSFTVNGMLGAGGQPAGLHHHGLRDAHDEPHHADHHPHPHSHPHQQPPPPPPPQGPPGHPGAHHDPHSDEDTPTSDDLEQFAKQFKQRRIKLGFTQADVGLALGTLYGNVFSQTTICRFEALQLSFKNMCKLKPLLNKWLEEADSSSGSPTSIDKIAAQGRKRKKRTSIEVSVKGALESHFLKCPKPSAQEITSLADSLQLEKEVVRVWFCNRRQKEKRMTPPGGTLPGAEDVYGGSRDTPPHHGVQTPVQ
Description: Step 2: Drug Affinity Responsive Target Stability (DARTS) Assay
This in cell assay provides a yes/no answer to direct interaction between BRN2 inhibitor and protein.
1) Prepare and place the following on ice: • Pronase • TNC 10× • 500 mM Tris-HCl (pH 8.0) • 500 mM NaCl, 100 mM CaCl2 • DMSO • Drug • 10 mL NP40+Protease inhibitor+Phosphatase inhibitor solution (can store in 4° C. and use for up to 4 weeks): • 2 mL NP40 5× • 8 mL ddH2O • 1 PhosphoSTOP™ pill • 200 uL protease inhibitor 50×
2) Remove the growth medium from the cell plate (42D^ENZR) and add 10 mL of cold PBS/vanadate.
3) Scrape the cells. Remove the PBS-cell solution and add in a falcon tube.
4) Name a new 1.5 ml Eppendorf tube and put on ice to pre-chill.
5) Centrifuge the cells at 1500 for 5 minutes at 4° C. Remove supernatant and re-suspend the cells in 600 uL NP40 lysis buffer by pipetting up and down. If the cell pellet is small use less volume, for example 300 μl)
6) Transfer the lysing cells into the pre-chilled Eppendorf tube. Incubate on ice for 20 minutes. If not continuing the DARTS on the same day, you can put the lysate in −30 and work on it later.
Preparing Cell Lysates for DARTS:
7) Centrifuge the tube at maximum speed for 25-30 minutes at 4° C.
8) Discard the pellet (either transfer the supernatant in a new tube or just take out the pellet). […]
20) The samples are ready for Western blot gel running. […]

half-life at 1 μM ([1]; mouse, liver microsomes, pH 7.4, 1 μM compound, read-out: T1/2 in mins (MLM)): > 1 h
Met Stab % (60 mins) MLM ([1]; percent remaining at 60 min, 1 μM compound, 1 mM NADPH): 78%
binding observed using DARTS assay [3]: DARTS- good binding
Compound: FC(F)(F)c1ccc2c(c1)/C(=N\Nc1nc3ccccc3s1)CC2 [7-36]
Growth Specificity [2]: Specific to 42D, but weak activity
